Experimental data published in PubChem BioAssay AID330 (DTP/NCI, 2004).
Several values for one entry are separate records, joined by “and”; a condition that tells them apart may be missing. Identical values can stand only once. Inconclusive results and toxic doses are left out. Rule for the calls: active = survival T/C of 150% or more; inactive = T/C below 125% in these data.

System: P388 leukemia ip, CD2F1 mice, survival T/C
Assay: NCI In Vivo Anticancer Drug Screen. Data for tumor model P388 Leukemia (intraperitoneal) in CD2F1 (CDF1) mice
Settings: endpoint: median survival time, higher = longer survival
In short: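 Mice carrying the transplanted tumor received test compound or vehicle. Survival was recorded in each group, and the value is the treated-group measurement divided by that of the vehicle-treated control group.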

[1] = dose: 60.0 mg/kg/injection, schedule: Q01DX005 (ip), vehicle: saline with Tween-80
[2] = dose: 25.0 mg/kg/injection, schedule: Q01DX009 (ip), vehicle: saline with Tween-80
[3] = dose: 50.0 mg/kg/injection, schedule: Q01DX009 (ip), vehicle: saline with Tween-80
[4] = dose: 120.0 mg/kg/injection, schedule: Q01DX005 (ip), vehicle: saline with Tween-80
[5] = dose: 240.0 mg/kg/injection, schedule: Q01DX005 (ip), vehicle: saline with Tween-80
[6] = dose: 50.0 mg/kg/injection, schedule: Q01DX005 (ip), vehicle: saline with Tween-80
[7] = dose: 100.0 mg/kg/injection, schedule: Q01DX005 (ip), vehicle: saline with Tween-80
[8] = dose: 200.0 mg/kg/injection, schedule: Q01DX005 (ip), vehicle: saline with Tween-80

Measured: T/C

CCN(CC)CCNc1ccc(COC(=O)OC)c2sc3ccccc3c(=O)c12
inactive: dose: 2.5 mg/kg/injection, schedule: Q01DX005 (ip), vehicle: saline with Tween-80 118 % of control | dose: 5.0 mg/kg/injection, schedule: Q01DX005 (ip), vehicle: saline with Tween-80 124 % of control | dose: 6.25 mg/kg/injection, schedule: Q01DX005 (ip), vehicle: saline with Tween-80 120 % of control | dose: 10.0 mg/kg/injection, schedule: Q01DX005 (ip), vehicle: saline with Tween-80 124 % of control | dose: 12.5 mg/kg/injection, schedule: Q01DX005 (ip), vehicle: saline with Tween-80 111 % of control | dose: 20.0 mg/kg/injection, schedule: Q01DX005 (ip), vehicle: saline with Tween-80 122 % of control

COc1cccc2c1C(=O)c1c(O)c(CCl)cc(OC)c1C2=O
inactive: dose: 7.5 mg/kg/injection, schedule: Q01DX005 (ip), vehicle: saline with Tween-80 108 % of control | dose: 15.0 mg/kg/injection, schedule: Q01DX005 (ip), vehicle: saline with Tween-80 117 % of control | dose: 30.0 mg/kg/injection, schedule: Q01DX005 (ip), vehicle: saline with Tween-80 114 % of control | [1] 101 % of control

CCOC(=O)CCC[n+]1cccc(C#N)c1
inactive: dose: 31.25 mg/kg/injection, schedule: Q01DX005 (ip), vehicle: Klucel (hydroxypropylcellulose) (HPC) 101 % of control | dose: 62.5 mg/kg/injection, schedule: Q01DX005 (ip), vehicle: Klucel (hydroxypropylcellulose) (HPC) 103 % of control | dose: 125.0 mg/kg/injection, schedule: Q01DX005 (ip), vehicle: Klucel (hydroxypropylcellulose) (HPC) 96 % of control

CCCCNC(=O)NC1OC(CO)C(O)C1O (stereo not drawn)
inactive: dose: 50.0 mg/kg/injection, schedule: Q01DX005 (ip), vehicle: saline 98 % of control | dose: 100.0 mg/kg/injection, schedule: Q01DX005 (ip), vehicle: saline 97 % of control | dose: 200.0 mg/kg/injection, schedule: Q01DX005 (ip), vehicle: saline 100 % of control

CC[n+]1c2ccc(C)cc2nc2c3ccccc3c(N)cc21
inactive: dose: 5.0 mg/kg/injection, schedule: Q01DX009 (ip), vehicle: saline 110 % of control | dose: 10.0 mg/kg/injection, schedule: Q01DX009 (ip), vehicle: saline 106 % of control | dose: 20.0 mg/kg/injection, schedule: Q01DX009 (ip), vehicle: saline 99 % of control

CCNC(=O)Nc1nc2ccccc2[nH]1
inactive: dose: 12.5 mg/kg/injection, schedule: Q01DX009 (ip), vehicle: saline with Tween-80 103 % of control | [2] 100 % of control | [3] 107 % of control

COC(=O)/C=C(\O)C(Cc1cc(OC)c2c(c1O)C(=O)c1c(OC)cccc1C2=O)C(=O)OC (stereo not drawn)
inactive: dose: 100.0 mg/kg/injection, schedule: Q01DX001 (ip), vehicle: saline with Tween-80 101 % of control | dose: 200.0 mg/kg/injection, schedule: Q01DX001 (ip), vehicle: saline with Tween-80 102 % of control | dose: 400.0 mg/kg/injection, schedule: Q01DX001 (ip), vehicle: saline with Tween-80 97 % of control

COc1ccc(CCNC(=O)CC2CCN(Cc3ccccc3)CC2)cc1OC
inactive: dose: 50.0 mg/kg/injection, schedule: Q01DX005 (ip), vehicle: Klucel (hydroxypropylcellulose) (HPC) 100 % of control | dose: 100.0 mg/kg/injection, schedule: Q01DX005 (ip), vehicle: Klucel (hydroxypropylcellulose) (HPC) 100 % of control | dose: 200.0 mg/kg/injection, schedule: Q01DX005 (ip), vehicle: Klucel (hydroxypropylcellulose) (HPC) 95 % of control

C[Si](C)(C)N1CCOC1=O
inactive: [1] 109 % of control | [4] 103 % of control | [5] 108 % of control

COc1ccccc1/C=N\NC(=O)C(=O)N/N=C\c1ccccc1OC
inactive: dose: 50.0 mg/kg/injection, schedule: Q01DX009 (ip), vehicle: Klucel (hydroxypropylcellulose) (HPC) 86 % of control | dose: 100.0 mg/kg/injection, schedule: Q01DX009 (ip), vehicle: Klucel (hydroxypropylcellulose) (HPC) 90 % of control | dose: 200.0 mg/kg/injection, schedule: Q01DX009 (ip), vehicle: Klucel (hydroxypropylcellulose) (HPC) 98 % of control

O=C(O)c1ccccc1-c1ccc2ccccc2c1
inactive: [6] 94 % of control | [7] 105 % of control | [8] 110 % of control

CN1CCN(CC(O)COc2c3ccccc3nc3ccccc23)CC1 (stereo not drawn)
inactive: [6] 104 % of control | [7] 95 % of control

O=C1CSC(c2cccc(F)c2)N1c1nncs1 (stereo not drawn)
inactive: [1] 98 % of control | [4] 105 % of control | [5] 106 % of control

COc1cc(-c2c(C)oc(C)c2C(C)=O)ccc1OCc1ccccc1
inactive: dose: 60.0 mg/kg/injection, schedule: Q01DX005 (ip), vehicle: Klucel (hydroxypropylcellulose) (HPC) 92 % of control | dose: 120.0 mg/kg/injection, schedule: Q01DX005 (ip), vehicle: Klucel (hydroxypropylcellulose) (HPC) 97 % of control | dose: 240.0 mg/kg/injection, schedule: Q01DX005 (ip), vehicle: Klucel (hydroxypropylcellulose) (HPC) 91 % of control

N=C(N)n1cc(/C=N/N=C(N)N)cn1
inactive: [1] 102 % of control | [4] 103 % of control

COc1ccc(Cl)[n+]([O-])n1
inactive: dose: 6.25 mg/kg/injection, schedule: Q04DX002 (ip), vehicle: Klucel (hydroxypropylcellulose) (HPC) 111 % of control | dose: 12.5 mg/kg/injection, schedule: Q04DX002 (ip), vehicle: Klucel (hydroxypropylcellulose) (HPC) 122 % of control | dose: 25.0 mg/kg/injection, schedule: Q04DX002 (ip), vehicle: Klucel (hydroxypropylcellulose) (HPC) 120 % of control | dose: 25.0 mg/kg/injection, schedule: Q04DX002 (ip), vehicle: saline 104 % of control | dose: 50.0 mg/kg/injection, schedule: Q04DX002 (ip), vehicle: Klucel (hydroxypropylcellulose) (HPC) 117 % of control | dose: 50.0 mg/kg/injection, schedule: Q04DX002 (ip), vehicle: saline 122 % of control | dose: 100.0 mg/kg/injection, schedule: Q04DX002 (ip), vehicle: saline 106 % of control

CC(=O)CC(=O)c1c(-c2ccccc2)n(C)c2ccccc12
inactive: dose: 100.0 mg/kg/injection, schedule: Q01DX001 (ip), vehicle: Klucel (hydroxypropylcellulose) (HPC) 98 % of control | dose: 200.0 mg/kg/injection, schedule: Q01DX001 (ip), vehicle: Klucel (hydroxypropylcellulose) (HPC) 101 % of control | dose: 400.0 mg/kg/injection, schedule: Q01DX001 (ip), vehicle: Klucel (hydroxypropylcellulose) (HPC) 102 % of control

Nc1nc2c(ccc3ccccc32)s1
inactive: [2] 115 % of control | [3] 102 % of control and 108 % of control and 97 % of control | dose: 100.0 mg/kg/injection, schedule: Q01DX009 (ip), vehicle: saline with Tween-80 100 % of control and 110 % of control and 93 % of control | dose: 200.0 mg/kg/injection, schedule: Q01DX009 (ip), vehicle: saline with Tween-80 103 % of control and 108 % of control and 93 % of control

COc1cc(-c2ccc(O)cc2)c(OC)c(O)c1-c1ccc(O)cc1
inactive: dose: 0.15 mg/kg/injection, schedule: Q01DX009 (ip), vehicle: saline 90 % of control | dose: 0.3 mg/kg/injection, schedule: Q01DX009 (ip), vehicle: saline 90 % of control | dose: 0.6 mg/kg/injection, schedule: Q01DX009 (ip), vehicle: saline 107 % of control | dose: 1.2 mg/kg/injection, schedule: Q01DX009 (ip), vehicle: saline 89 % of control

O=C(O)C(O)C(O)C1[O][Sb][O]C1CO (stereo not drawn)
inactive: [6] 98 % of control | [7] 96 % of control | [8] 96 % of control

S=C1CCNCC1
inactive: dose: 3.13 mg/kg/injection, schedule: Q04DX003 (ip), vehicle: saline 100 % of control | dose: 6.25 mg/kg/injection, schedule: Q04DX003 (ip), vehicle: saline 104 % of control | dose: 12.5 mg/kg/injection, schedule: Q04DX003 (ip), vehicle: saline 100 % of control | dose: 25.0 mg/kg/injection, schedule: Q04DX003 (ip), vehicle: saline 100 % of control | dose: 50.0 mg/kg/injection, schedule: Q04DX003 (ip), vehicle: saline 90 % of control
